In ChEMBL document CHEMBL3885881, “DrugMatrix”:

Organism: Rattus norvegicus
Experiment: DrugMatrix - Regimen: Daily Repeat
Assay type: toxicity, organism-based, Sprague-Dawley
Set-up: regimen Daily Repeat, gender Male, age 6-8 weeks
Conditions: in vivo, po, 10 mg/kg, route oral GAVAGE, dose level Low, […]; for ABSOLUTE BASOPHIL / ABSOLUTE EOSINOPHIL / ABSOLUTE LYMPHOCYTE / ABSOLUTE MONOCYTE / ABSOLUTE SEGMENTED NEUTROPHIL / BASOPHIL / EOSINOPHIL / ERYTHROCYTE COUNT / HEMATOCRIT / HEMOGLOBIN / LEUKOCYTE COUNT / LYMPHOCYTE / MEAN CORPUSCULAR HEMOGLOBIN / MEAN CORPUSCULAR HEMOGLOBIN CONCENTRATION / MEAN CORPUSCULAR VOLUME / MONOCYTE / NEUTROPHIL / NUCLEATED RED BLOOD CELLS / PLATELET COUNT: tissue Blood; for ALANINE AMINOTRANSFERASE / ALBUMIN / ALKALINE PHOSPHATASE / ASPARTATE AMINOTRANSFERASE / BLOOD UREA NITROGEN / CARBON DIOXIDE / CHLORIDE / CHOLESTEROL / CREATINE PHOSPHOKINASE / CREATININE / GLUCOSE / LACTATE DEHYDROGENASE / LIPASE / PHOSPHORUS / POTASSIUM / SODIUM / TOTAL BILIRUBIN / TOTAL PROTEIN / URIC ACID: tissue Plasma

With `NC(=O)N1C(=O)/C(=C(\O)c2cccs2)c2cc(Cl)ccc21` [TENIDAP] the “ABSOLUTE BASOPHIL” value (72 h, time 3 day) was 0 CELLS/uL, the “ABSOLUTE EOSINOPHIL” value (72 h, time 3 day) was 204 CELLS/uL and the “ABSOLUTE LYMPHOCYTE” value (72 h, time 3 day) was 13523 CELLS/uL. For the same molecule, the “ABSOLUTE MONOCYTE” value (72 h, time 3 day) was 155.33 CELLS/uL, the “ABSOLUTE SEGMENTED NEUTROPHIL” value (72 h, time 3 day) was 1651 CELLS/uL and the BASOPHIL (72 h, time 3 day) was 0%. For the same molecule, the EOSINOPHIL (72 h, time 3 day) was 1.33%, the “ERYTHROCYTE COUNT” value (72 h, time 3 day) was 5.32 x10E6/uL and the HEMATOCRIT (72 h, time 3 day) was 33.53%. For the same molecule, the HEMOGLOBIN (72 h, time 3 day) was 13.33 G/DL, the “LEUKOCYTE COUNT” value (72 h, time 3 day) was 15.53 x10E3/uL and the LYMPHOCYTE (72 h, time 3 day) was 86.67%. The “MEAN CORPUSCULAR HEMOGLOBIN” value (72 h, time 3 day) was 25.03 pg, the “MEAN CORPUSCULAR HEMOGLOBIN CONCENTRATION” value (72 h, time 3 day) was 39.73 G/DL and the “MEAN CORPUSCULAR VOLUME” value (72 h, time 3 day) was 62.97 fL. For the same molecule, the MONOCYTE (72 h, time 3 day) was 1%, the NEUTROPHIL (72 h, time 3 day) was 11% and the “NUCLEATED RED BLOOD CELLS” value (72 h, time 3 day) was 0 /100WBC. For the same molecule, the “PLATELET COUNT” value (72 h, time 3 day) was 1066.67 x10E3/uL, the “ALANINE AMINOTRANSFERASE” value (72 h, time 3 day) was 83.33 u/L and the ALBUMIN (72 h, time 3 day) was 3.87 G/DL. The “ALKALINE PHOSPHATASE” value (72 h, time 3 day) was 429.33 u/L, the “ASPARTATE AMINOTRANSFERASE” value (72 h, time 3 day) was 109.67 u/L and the “BLOOD UREA NITROGEN” value (72 h, time 3 day) was 11 mg/dL. For the same molecule, the “CARBON DIOXIDE” value (72 h, time 3 day) was 23.67 mmol/L, the CHLORIDE (72 h, time 3 day) was 102.67 MEQ/L and the CHOLESTEROL (72 h, time 3 day) was 63.67 mg/dL. The “CREATINE PHOSPHOKINASE” value (72 h, time 3 day) was 779.67 u/L, the CREATININE (72 h, time 3 day) was 0.2 mg/dL and the GLUCOSE (72 h, time 3 day) was 169 mg/dL. The “LACTATE DEHYDROGENASE” value (72 h, time 3 day) was 223.67 u/L, the LIPASE (72 h, time 3 day) was 12 u/L and the PHOSPHORUS (72 h, time 3 day) was 11.47 mg/dL. The POTASSIUM (72 h, time 3 day) was 5.98 MEQ/L, the SODIUM (72 h, time 3 day) was 143.97 MEQ/L and the “TOTAL BILIRUBIN” value (72 h, time 3 day) was 0.17 mg/dL. For the same molecule, the “TOTAL PROTEIN” value (72 h, time 3 day) was 5.27 G/DL, the “URIC ACID” value (72 h, time 3 day) was 1.43 mg/dL and the “ABSOLUTE BASOPHIL” value (120 h, time 5 day) was 0 CELLS/uL. The “ABSOLUTE EOSINOPHIL” value (120 h, time 5 day) was 83.67 CELLS/uL, the “ABSOLUTE LYMPHOCYTE” value (120 h, time 5 day) was 10624.67 CELLS/uL and the “ABSOLUTE MONOCYTE” value (120 h, time 5 day) was 83.67 CELLS/uL. The “ABSOLUTE SEGMENTED NEUTROPHIL” value (120 h, time 5 day) was 1674.67 CELLS/uL, the BASOPHIL (120 h, time 5 day) was 0% and the EOSINOPHIL (120 h, time 5 day) was 0.67%. The “ERYTHROCYTE COUNT” value (120 h, time 5 day) was 5.4 x10E6/uL, the HEMATOCRIT (120 h, time 5 day) was 33.6% and the HEMOGLOBIN (120 h, time 5 day) was 13.33 G/DL. The “LEUKOCYTE COUNT” value (120 h, time 5 day) was 12.47 x10E3/uL, the LYMPHOCYTE (120 h, time 5 day) was 85.33% and the “MEAN CORPUSCULAR HEMOGLOBIN” value (120 h, time 5 day) was 24.7 pg. For the same molecule, the “MEAN CORPUSCULAR HEMOGLOBIN CONCENTRATION” value (120 h, time 5 day) was 39.67 G/DL, the “MEAN CORPUSCULAR VOLUME” value (120 h, time 5 day) was 62.27 fL and the MONOCYTE (120 h, time 5 day) was 0.67%. The NEUTROPHIL (120 h, time 5 day) was 13.33%, the “NUCLEATED RED BLOOD CELLS” value (120 h, time 5 day) was 0 /100WBC and the “PLATELET COUNT” value (120 h, time 5 day) was 1241 x10E3/uL. The “ALANINE AMINOTRANSFERASE” value (120 h, time 5 day) was 56.33 u/L, the ALBUMIN (120 h, time 5 day) was 4.13 G/DL and the “ALKALINE PHOSPHATASE” value (120 h, time 5 day) was 448.67 u/L. The “ASPARTATE AMINOTRANSFERASE” value (120 h, time 5 day) was 103.33 u/L, the “BLOOD UREA NITROGEN” value (120 h, time 5 day) was 13 mg/dL and the “CARBON DIOXIDE” value (120 h, time 5 day) was 33.67 mmol/L. The CHLORIDE (120 h, time 5 day) was 100.33 MEQ/L, the CHOLESTEROL (120 h, time 5 day) was 58.33 mg/dL and the “CREATINE PHOSPHOKINASE” value (120 h, time 5 day) was 442.67 u/L. The CREATININE (120 h, time 5 day) was 0.21 mg/dL, the GLUCOSE (120 h, time 5 day) was 155 mg/dL and the “LACTATE DEHYDROGENASE” value (120 h, time 5 day) was 736.33 u/L. It also gave an LIPASE (120 h, time 5 day) of 11 u/L, a PHOSPHORUS (120 h, time 5 day) of 11.1 mg/dL and a POTASSIUM (120 h, time 5 day) of 6.31 MEQ/L. The SODIUM (120 h, time 5 day) was 144.37 MEQ/L, the “TOTAL BILIRUBIN” value (120 h, time 5 day) was 0.17 mg/dL and the “TOTAL PROTEIN” value (120 h, time 5 day) was 5.93 G/DL. For the same molecule, the “URIC ACID” value (120 h, time 5 day) was 1.33 mg/dL.
